Experimental data from patent US6444691B1, “1,3-disubstituted ureas as ACAT inhibitors, and method of preparing thereof” (Solvakofarma, a.s., priority 1997, dated 2002).

Legend:
[1] = system: rat liver ACAT (acylCoa:cholesterol acyltransferase); assay: In vitro inhibition of ACAT activity, rat liver microsomal fraction; type: biochemical; conditions: rat liver microsomes, concentration 2 μM, versus enzyme activity in 1% dimethylsulfoxide
Method: (§1) The biological activity of the substances was evaluated based on the in vitro inhibition of acylCoa:cholesterol acyltransferase (ACAT) activity. The enzyme was obtained from the microsomal fraction of rat liver cells and rabbit intestinal mucosa of animals fed with cholesterol. The substrates for the enzyme reaction included exogenous oleoyl co-enzyme A and endogenous cholesterol. ^14C-oleoyl co-enzyme A conversion to ^14C-cholesteryl oleate was monitored. From the mixture of extracted lipids, cholesteryl oleate was separated using thin-layer chromatography, and was quantified radiometrically. ACAT specific activity was expressed as the amount of cholesteryl oleate formed per minute per mg microsomal protein.
(§2) Efficiency was calculated as compared to enzyme activity measured in the presence of 1% dimethylsulfoxide used as the solvent to prepare solutions of the substances tested.

[2] = system: rabbit intestinal mucosa ACAT (acylCoa:cholesterol acyltransferase); assay: In vitro inhibition of ACAT activity, rabbit intestinal mucosa microsomal fraction; type: biochemical; conditions: rabbit intestinal mucosa microsomes, concentration 2 μM, versus enzyme activity in 1% dimethylsulfoxide
Method: as §1, §2

Row | Compound | Efficiency (%) liver (ACAT inhibition) [1] [%] | Efficiency (%) mucosa (ACAT inhibition) [2] [%]
1 | O=C(Nc1ccc(Oc2ccc([N+](=O)[O-])cc2)cc1)Nc1c(Cl)cccc1Cl [Example 7, 1-(2,6-Dichlorophenyl)-3-((4′-nitrophenoxy)-phenyl)-urea] | 20 | 25
2 | O=C(Nc1ccc(Oc2ccc([N+](=O)[O-])cc2)cc1)Nc1cc(Cl)cc(Cl)c1 [Example 8, 1-(3,5-Dichlorophenyl)-3-((4′-nitrophenoxy)-phenyl)-urea] | 0 | 0
3 | Cc1cc(C)cc(NC(=O)Nc2ccc(Sc3ccc([N+](=O)[O-])cc3)cc2)c1 [Example 41, 1-(3,5-Dimethylphenyl)-3-((4′-nitrophenylthio)-phenyl)-urea] | 18 | 27
4 | O=C(Nc1ccc(Oc2ccc([N+](=O)[O-])cc2)cc1)Nc1cccc(C(F)(F)F)c1 [Example 16, 1-(3-Trifluoromethylphenyl)-3-((4′-nitrophenoxy)-phenyl)-urea] | 38 | 45
5 | O=C(Nc1ccc(Oc2ccc([N+](=O)[O-])cc2)cc1)Nc1cccc(Cl)c1Cl [Example 6, 1-(2,3-Dichlorohenyl)-3-((4′-nitrophenoxy)-phenyl)-urea] | 58 | 51
6 | O=C(Nc1ccc(Sc2ccc([N+](=O)[O-])cc2)cc1)Nc1c(Cl)cccc1Cl [Example 34, 1-(2,6-Dichlorophenyl)-3-((4′-nitrophenylthio)-phenyl)-urea] | 15 | 21
7 | CC(C)c1cccc(C(C)C)c1NC(=O)Nc1ccc(Sc2ccc(N)cc2)cc1 [Example 59] | 56 | 67
8 | O=C(Nc1ccc(Sc2ccc([N+](=O)[O-])cc2)cc1)Nc1cccnc1 [Example 47, 1-(3-Pyridyl)-3-((4′-nitrophenylthio)-phenyl)-urea] | 45 | 36
9 | O=C(Nc1ccc(Sc2ccc([N+](=O)[O-])cc2)cc1)Nc1ccc(Cl)cc1Cl [Example 33, 1-(2,4-Dichlorophenyl)-3-((4′-nitrophenylthio)-phenyl)-urea] | 12 | 16
10 | O=C(Nc1ccc(Sc2ccc([N+](=O)[O-])cc2)cc1)Nc1ccc(C(F)(F)F)cc1 [Example 45, 1-(4-Trifluoromethylphenyl)-3-((4′-nitrophenylthio)-phenyl)-urea] | 23 | 25
11 | O=C(Nc1ccc(Oc2ccc([N+](=O)[O-])cc2)cc1)Nc1ccc(C(F)(F)F)cc1 [Example 17, 1-(4-Trifluoromethylphenyl)-3-((4′-nitrophenoxy)-phenyl)-urea] | 25 | 18
12 | Cc1ccc(NC(=O)Nc2ccc(Oc3ccc([N+](=O)[O-])cc3)cc2)c(C)c1 [Example 11, 1-(2,4-Dimethylphenyl)-3-((4′-nitrophenoxy)-phenyl)-urea] | 0 | 0
13 | Nc1ccc(Oc2ccc(NC(=O)Nc3cccc(Cl)c3Cl)cc2)cc1 [Example 53, 1-(2,3-Dichlorophenyl)-3-((4′-aminophenoxy)-phenyl)-urea] | 55 | 46
14 | Cc1cc(C)cc(NC(=O)Nc2ccc(Oc3ccc([N+](=O)[O-])cc3)cc2)c1 [Example 13, 1-(3,5-Dimethylphenyl)-3-((4′-nitrophenoxy)-phenyl)-urea] | 0 | 0
15 | O=C(Nc1ccc(Sc2ccc([N+](=O)[O-])cc2)cc1)Nc1cccc(Cl)c1Cl [Example 32, 1-(2,3-Dichlorophenyl)-3-((4′-nitrophenylthio)-phenyl)-urea] | 0 | 0
16 | Cc1ccccc1NC(=O)Nc1ccc(Sc2ccc([N+](=O)[O-])cc2)cc1 [Example 37, 1-(2-Methylphenyl)-3-((4′-nitrophenylthio)-phenyl)-urea] | 27 | 31
17 | O=C(Nc1ccc(Oc2ccc([N+](=O)[O-])cc2)cc1)Nc1cc(F)ccc1F [Example 3, 1-(2,5-Difluorophenyl)-3-((4′-nitrophenoxy)-phenyl)-urea] | 49 | 58

Row | Compound | Efficiency (%) liver (ACAT inhibition) [1] [%] | Efficiency (%) mucosa (ACAT inhibition) [2] [%]
18 | O=C(Nc1ccc(Oc2ccc([N+](=O)[O-])cc2)cc1)Nc1ccccc1F [Example 1, 1-(2-Fluorophenyl)-3-((4′-nitrophenoxy)-phenyl)-urea] | 15 | 32
19 | Cc1ccccc1NC(=O)Nc1ccc(Oc2ccc([N+](=O)[O-])cc2)cc1 [Example 9] | 0 | 0
20 | 1-(3-Trifluoromethylphenyl)-3-((4′-nitrophenylthio)-phenyl)-urea [Example 44] | 34 | 45
21 | O=C(Nc1ccc(Sc2ccc([N+](=O)[O-])cc2)cc1)Nc1ccc(Cl)c(Cl)c1 [Example 35, 1-(3,4-Dichlorophenyl)-3-((4′-nitrophenylthio)-phenyl)-urea] | 0 | 20
22 | O=C(Nc1ccc(Sc2ccc([N+](=O)[O-])cc2)cc1)Nc1ccc([N+](=O)[O-])cc1 [Example 24, 1-(4-Nitrophenyl)-3-((4′-nitrophenylthio)-phenyl)-urea] | 0 | 34
23 | O=C(Nc1ccc(Oc2ccc([N+](=O)[O-])cc2)cc1)Nc1ccc(F)cc1F [Example 2] | 37 | 55
24 | O=C(Nc1ccc(Sc2ccc([N+](=O)[O-])cc2)cc1)Nc1ccccc1F [Example 25, 1-(2-Fluorophenyl)-3-((4′-nitrophenylthio)-phenyl)-urea] | 0 | 23
25 | O=C(Nc1ccc(Sc2ccc([N+](=O)[O-])cc2)cc1)Nc1ccccc1C(F)(F)F [Example 43, 1-(2-Trifluoromethylphenyl)-3-((4′-nitrophenylthio)-phenyl)-urea] | 25 | 38
26 | Nc1ccc(Oc2ccc(NC(=O)Nc3ccc(F)cc3F)cc2)cc1 [Example 52, 1-(2,4-Difluorophenyl)-3-((4′-aminophenoxy)-phenyl)-urea] | 53 | 64
27 | Nc1ccc(Sc2ccc(NC(=O)Nc3cccc(Cl)c3Cl)cc2)cc1 [Example 57, 1-(2,3-Dichlorophenyl)-3-((4′-aminophenylthio)-phenyl)-urea] | 15 | 26
28 | CC(C)c1cccc(C(C)C)c1NC(=O)Nc1ccc(Oc2ccc(N)cc2)cc1 [Example 55, 1-(2,6-Di(methylethyl)-phenyl)-3-((4′-aminophenoxy)-phenyl)-urea] | 68 | 64
29 | O=C(Nc1ccc(Oc2ccc([N+](=O)[O-])cc2)cc1)NC12CC3CC(CC(C3)C1)C2 [Example 23] | 43 | 58
30 | Nc1ccc(Sc2ccc(NC(=O)Nc3ccc(F)cc3F)cc2)cc1 [Example 56, 1-(2,4-Difluorophenyl)-3-((4′-aminophenylthio)-phenyl)-urea] | 22 | 25
31 | CC(C)c1cccc(C(C)C)c1NC(=O)Nc1ccc(Sc2ccc([N+](=O)[O-])cc2)cc1 [Example 42] | 88 | 71
32 | Cc1cccc(C)c1NC(=O)Nc1ccc(Oc2ccc(N)cc2)cc1 [Example 54, 1-(2,6-Dimethylphenyl)-3-((4′-aminophenoxy)-phenyl)-urea] | 38 | 62
33 | O=C(Nc1ccc(Oc2ccc([N+](=O)[O-])cc2)cc1)Nc1c(F)cccc1F [Example 4, 1-(2,6-Difluorophenyl)-3-((4′-nitrophenoxy)-phenyl)-urea] | 0 | 42
34 | O=C(Nc1ccc(Oc2ccc([N+](=O)[O-])cc2)cc1)Nc1cccnc1 [Example 19] | 0 | 0
